Reference: patent publication US11331375B2, “Compositions and methods for regulating leukocyte adhesion” (University of Virginia Patent Foundation, priority 2015, dated 2022)

How the values were obtained:
HSaVEC = experiment: In vitro ATP release assay (luciferin:luciferase), HSaVEC; type: cell-based, human; details: for inhibition of TNFα-mediated ATP release: CBX, ^10panx1; for effect of inhibitor on TNFα-induced ATP release: antagonist 30 min, WP9QY 10 μM, BFA 5 μg/mL, RuR 20 μM, PP2/PP3 10 μM
Procedure: (§1) In vitro Human arterial and venous ECs were seeded in 24-well plates pre-coated with 0.2% gelatin and grown to confluency. On the day of experiment, the media was removed from each well and cells were carefully washed twice with warm serum free basal EC medium supplemented with 1% BSA. Cells were then incubated in 300 μL of fresh basal EC medium supplemented with 1% BSA for 30 minutes at 37° C. to allow degradation of extracellular ATP released due to mechanical stimulation during washes. Endogenous ecto-nucleotidases were inhibited by incubating EC monolayers with 300 μM ARL 67156 (Tocris) for 30 minutes at 37° C. Cells were then stimulated with recombinant human TNFα (R&D Systems). For dose response experiments, ECs were incubated with 0.1, 1, 5, 10, 50, or 100 ng/mL recombinant TNFα for 30 minutes at 37° C. For time-course experiments, ECs were stimulated with 10 ng/mL recombinant TNFα for different time points up to 1 hour. In experiments where pharmacological inhibitors were employed, ECs were incubated with antagonists in parallel with ARL 67156 for 30 minutes. To inhibit TNFR1, ECs were incubated with the peptide antagonist of the receptor WP9QY (10 μM; Anaspec). […] Cx hemichannels were inhibited with lanthanum (La^3+; 100 μM; Sigma) and Panx1 channels were blocked with carbenoxolone (CBX; 50 μM; Sigma) and the inhibitory peptide ^10panx1 (200 μM; Genscript). […] The role of caspase activation was assessed by inhibition with the pan-caspase blocker Q-VD-OPh (100 μM; Sigma). Following stimulation with TNFα or vehicle, 150 μL of the cell supernatant was collected and immediately placed into pre-chilled 1.5 mL Eppendorf tubes on ice. All samples were centrifuged at 10,000×g for 5 minutes and 50 μL of each sample was transferred to a white, opaque 96-well plate. Using a FluoStar Omega luminometer, 50 μL of luciferin:luciferase reagent (ATP bioluminescence assay kit HSII; Roche) was injected into each well and luminescence was recorded following a 5s orbital mix. ATP concentration in each sample was calculated from a standard curve for all experiments. Data are presented as a % change in ATP release from baseline (i.e. unstimulated cells) and expressed as mean±SEM (n=5 independent experiments with triplicate measurements).

HUVEC = experiment: In vitro ATP release assay (luciferin:luciferase), HUVEC; type: cell-based, human; details: for reduction of TNFα-mediated ATP release: CBX 50 μM, ^10panx1 200 μM; for effect of inhibitor on TNFα-induced ATP release: antagonist 30 min, WP9QY 10 μM, La3+ 100 μM, BFA 5 μg/mL, RuR 20 μM, PP2/PP3 10 μM, Q-VD-OPh 100 μM
Procedure: as §1

[1] = tested on: THP-1 monocyte adhesion to HUVEC; experiment: Static adhesion assay, THP-1 monocytes on HUVEC; type: cell-based, human; details: HUVEC treated with inhibitor prior to TNFα stimulation
Procedure: HUVECs were seeded on gelatin-coated glass coverslips in 6-well plates and grown to confluence. On the day of the experiment, cells were washed 2× with 1× PBS and incubated for 30 minutes in basal EGM supplemented with 1% BSA in the presence or absence of pharmacological inhibitors. During this incubation period, human THP-1 monocytes were loaded with Calcein-AM (Invitrogen; 5 μg/mL) for 30 minutes at 37° C. Cells were then pelleted by brief centrifugation and excess calcein was removed by washing THP-1 cells 3 times in 1× PBS. Next, HUVECs were stimulated with TNFα (10 ng/mL) for 30 minutes. Following EC activation, calcein-loaded THP-1 monocytes were added to EC monolayers and incubated for 20 minutes at 37° C. to allow THP-1 to contact ECs. Monolayers were then washed 3× with 1× PBS and fixed in ice cold 4% PFA. Following fixation, coverslips were removed from the 6-well plates and mounted on glass microscope slides with Prolong Gold anti-fade mountant with DAPI (Life Technologies). Fluorescent micrographs were obtained at 10×magnification and the number of adherent THP-1 monocytes/ECs was quantified in 5 randomized regions/slide. Data are expressed as mean±SEM (n=3 independent experiments).

[2] = tested on: isolated murine mesenteric venules; experiment: Ex vivo vascular perfusion ATP release assay, mesenteric venules; type: cell-based, mouse; details: WP9QY 10 μM, PP2 10 μM
Procedure: For isolated blood vessel experiments, 2nd order venules or arterioles were dissected from the mouse mesentery circulation and cannulated on glass micropipettes to access the vessel lumen. […] Vessels were then perfused with MOPS PSS containing 300 μM ARL 67156 +/− pharmacological inhibitors and incubated for an additional 20 minutes prior to perfusion with MOPS PSS containing recombinant murine TNFα (R&D Systems). Aliquots of the lumenal perfusate were collected every 5 minutes for a 25-minute period and the ATP concentration was quantified by bioluminescence as described above. Data are expressed as mean±SEM (n=4 independent experiments).

Panx1 = experiment: Western blot of Panx1 phosphorylation at Y198 in venous ECs; type: cell-based, human
Procedure: (§2) Following stimulation with TNFα (in vitro: 10 ng/mL; ex vivo: 50 ng/mL), confluent endothelial cell monolayers or isolated mesenteric venules were homogenized in ice cold Triton extraction buffer (50 mM Tris-HCL, 150 mM NaCl , 5 mM EDTA, 1% deoxycholate, 1% NP-40 and 1% Triton-X100 in phosphate buffered saline and pH adjusted to 7.4) containing protease and phosphatase inhibitors. Cell/Tissue lysates were incubated with rotation at 4° C. for 20 minutes to solubilize proteins, followed by centrifugation for 5 minutes at 13,000× g to pellet cell debris. Protein concentration was quantified using the BCA method. 15-20 μg of total protein was subjected to SDS gel electrophoresis using 4-12% Bis-Tris gels (Invitrogen) and transferred to nitrocellulose membranes for immunoblotting. Membranes were blocked for 1 hr at room temperature with LiCOR blocking solution, then incubated overnight at 4° C. with primary antibodies against pY416SFKs, (BD Biosciences; 1:1000) pY198Panx1 (Alpha Diagnostic Intl (ADI); 1:1000) and GAPDH (Sigma; 1:10,000) or an antibody against the intracellular loop of Panx1 (Panx1-IL) (ADI; 1:1000) (normalization controls). Membranes were then washed and incubated with LiCOR secondary antibodies (1:10,000) and visualized and quantitated using LiCOR Odyssey. To inhibit SFK activity, EC monolayers were incubated with the SFK inhibitor PP2 (Tocris; 10 μM). […] To show specificity for the phosphorylated form of SFKs and Panx1, cell lysates were incubated with alkaline phosphatase for 1 hour at 37° C. Western blot images have been cropped for presentation. Uncropped Western blots can be found in FIGS. 12-13. Data are expressed as mean±SEM (n=3 independent experiments).

Src Family Kinases (SFK) = experiment: Western blot of SFK activation (pY416SFK) in venous ECs; type: cell-based, human; details: HUVEC and HSaVEC; PP2/PP3 10 μM
Procedure: as §2

pannexin1 channel = pannexin1 channel (Homo sapiens, UniProt Q96RD7); details: cited from earlier work
C57B1/6J mice = experiment: Intravital microscopy of cremaster muscle for leukocyte adhesion and emigration; type: in vivo, mouse; details: control C57B1/6J mice, tamoxifen 10 consecutive days
Procedure: Mice were prepared for intravital microscopy of the cremaster muscle as described previously^25. Briefly, mice were anesthetized with ketamine hydrochloride (150 mg/kg, IP) and xylazine (7.5 mg/kg, IP). The cremaster was isolated, laid over a viewing pedestal, superfused with bicarbonate-buffered saline. After 30 min equilibration, a venule with a wall shear rate (WSR) of ≥500/s, diameter between 20 μm and 40 μm, and the least number of adherent and emigrated leukocytes was chosen for further study. A 1 min baseline recording was made, after which superfusion was stopped, and 50 μl TNFα (1.7 ng/ml in 0.1% BSA) or vehicle control was added under a saran wrap cover every 30 min. 1 min recordings were made just prior to each addition, for 3 hrs. The TNFα was initially reconstituted in PBS at 3.4 ng/ml and 150 μl aliquots were frozen. An aliquot was mixed 1:1 with BBS containing 0.2% BSA at the time of the experiment. Leukocyte adhesion and emigration were determined by off-line analysis. Leukocytes were considered adherent if they stopped for at least 30 s (expressed as #/mm^2 vessel wall), and emigrated leukocytes were leukocytes identified in the interstitium (expressed as #cells/mm^2 tissue). Data are expressed as mean±SEM (n=6-7 independent animals/group).

Panx1 channels in HUVEC = biological target: T1, Panx1 channels in HUVEC (Homo sapiens, UniProt Q96RD7); experiment: YO-PRO-1 dye uptake assay; type: cell-based; details: ^10panx1 200 μM, TNFα 10 ng/mL 30 minutes
T1 construct: Primary human umbilical vein endothelial cells (HUVEC) were purchased from Cell Applications; PromoCell 200K-05; C-12231; host or cells: HUVEC, HSaVEC (primary human venous endothelial cells)
Procedure: HUVECs were cultured on poly-L-lysine coated coverslips and grown to confluence in EGM. Cells were washed three times with 1× PBS and incubated in fresh EGM for 30 minutes prior to stimulation. To stimulate YO-PRO-1 dye uptake, YO-PRO-1 (1 μM) was added to the media and EC monolayers were treated with TNFα at a range of concentrations (0.1 ng/mL-100 ng/mL) for 30 minutes. At the end of the stimulation, cells were washed 3× with 1× PBS and immediately fixed in 4% PFA. Coverslips were then mounted on microscope slides with DAPI ProlongGold mounting agent and visualized on an Olympus IX81 laser scanning confocal microscope. Dye uptake was quantified as the intensity of YO-PRO-1 fluorescence over time using ImageJ software. For time course analysis, YO-PRO-1 was added to the culture media at various time points after TNFα stimulation and incubated to the 30-minute time point. Data are expressed as mean±SEM (n=3 independent experiments).

Sequence of pannexin1 channel (Q96RD7 whole entry): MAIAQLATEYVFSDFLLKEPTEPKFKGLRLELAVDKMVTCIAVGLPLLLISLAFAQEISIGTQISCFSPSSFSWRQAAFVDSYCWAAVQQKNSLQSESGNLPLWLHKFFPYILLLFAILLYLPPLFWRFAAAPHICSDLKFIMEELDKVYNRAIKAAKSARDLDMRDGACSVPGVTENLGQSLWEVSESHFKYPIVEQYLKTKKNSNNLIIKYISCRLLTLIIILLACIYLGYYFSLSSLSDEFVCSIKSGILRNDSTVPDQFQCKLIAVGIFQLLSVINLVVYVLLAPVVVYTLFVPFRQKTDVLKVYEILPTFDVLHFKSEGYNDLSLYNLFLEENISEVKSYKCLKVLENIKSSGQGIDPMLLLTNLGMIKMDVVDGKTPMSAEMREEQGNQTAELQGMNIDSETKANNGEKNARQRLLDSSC
T1 sequence (Q96RD7 whole entry): as above

In the case of `CC1(C)[C@@H](OC(=O)CCC(=O)O)CC[C@]2(C)[C@H]3C(=O)C=C4[C@@H]5C[C@@](C)(C(=O)O)CC[C@]5(C)CC[C@@]4(C)[C@]3(C)CC[C@@H]12` [CBX, carbenoxolone], the “inhibition of TNFα-mediated ATP release” value (HSaVEC; HSaVEC) is reported as 69.7%, the “reduction of TNFα-mediated ATP release” value (HUVEC; HUVEC) is reported as 86.4% and the “effect on TNFα-induced THP-1 monocyte adhesion” value [1] is reported as “significantly reduced”.
With `CC(C)(C)n1nc(-c2ccc(Cl)cc2)c2c(N)ncnc21` [PP2] the “effect of inhibitor on TNFα-induced ATP release” value (“effect of inhibitor” for short) [2] was “blunting ATP release”, the “effect of inhibitor” value (HSaVEC; HSaVEC) was “significantly blunted” and the “effect of inhibitor” value (HUVEC; HUVEC) was “significantly blunted”. The “effect on Panx1 Y198 phosphorylation induced by c-Src overexpression” value (Panx1; HUVEC) was “blocked”, the “effect on TNFα-induced Panx1 phosphorylation at Y198” value (Panx1; HUVEC and HSaVECs, pretreatment with PP2) was “blocked” and the “effect on TNFα-induced Y416 phosphorylation of SFK” value (Src Family Kinases (SFK)) was “reduced Y416 phosphorylation to baseline levels”.
For `[La]` [lanthanum], the “effect of inhibitor” value (HUVEC; HUVEC) was “failed to reduce ATP release”.
For “IL-1β: recombinant human pro-inflammatory cytokine”, the “ATP release on cytokine stimulation” value (HSaVEC; HSaVEC monolayers) was “failed to promote ATP release”, the “degree of ATP release on co-administration with TNFα vs TNFα alone” value (HSaVEC; HSaVEC, TNFα 10 ng/mL plus increasing IL-1β) was “did not significantly alter” and the “ATP release on cytokine stimulation” value (HUVEC; HUVEC monolayers) was “failed to promote ATP release”. For the same compound, the “degree of ATP release on co-administration with TNFα vs TNFα alone” value (HUVEC; HUVEC, TNFα 10 ng/mL plus increasing IL-1β) was “did not significantly alter”.
For “KYPIVEQYLKYGRKKQRRR (hybrid of human and HIV tat seq.) [IL2/PanX peptide]”, the “inhibition of pannexin1 channel (previously shown / known)” value (pannexin1 channel) is given as “potent and specific inhibitor” and the “effect on TNFα-induced THP-1 monocyte adhesion” value [1] is given as “ability to block leukocyte adhesion”.
For Apyrase, the “effect on TNFα-induced THP-1 monocyte adhesion” value [1] was “significantly reduced”.
In the case of `CC(C)[C@H](NC(=O)c1ccc2ccccc2n1)C(=O)N[C@@H](CC(=O)O)C(=O)COc1c(F)cccc1F` [Q-VD-OPh], the “effect of inhibitor” value (HUVEC; HUVEC) is reported as “lack of inhibition”.
In the case of `Nc1ncnc2c1cnn2-c1ccccc1` [PP3], the “effect of inhibitor” value (HSaVEC; HSaVEC) is reported as “no significant effect”, the “effect of inhibitor” value (HUVEC; HUVEC) is reported as “no significant effect” and the “effect on TNFα-induced Y416 phosphorylation of SFK” value (Src Family Kinases (SFK)) is reported as “no effect”.
With `N.N.N.N.N.N.N.N.N.N.N.N.N.N.[Cl-].[Cl-].[Cl-].[Cl-].[Cl-].[Cl-].[O-2].[O-2].[Ru+3].[Ru+3].[Ru+4]` [ruthenium red] the “effect of inhibitor” value (HSaVEC; HSaVEC) was “ruled out the involvement” and the “effect of inhibitor” value (HUVEC; HUVEC) was “ruled out the involvement”.
For `CC/C(=C(\c1ccccc1)c1ccc(OCCN(C)C)cc1)c1ccccc1` [tamoxifen], the “effect on TNFα-induced leukocyte adhesion” value (C57B1/6J mice) was “no effect” and the “effect on TNFα-induced leukocyte emigration” value (C57B1/6J mice) was “no effect”.
In the case of WRQAAFVDSY [^10panx1], the “inhibition of pannexin1 channel (previously shown / known)” value (pannexin1 channel) is given as “block pannexin-1 gap junctions”, the “inhibition of TNFα-mediated ATP release” value (HSaVEC; HSaVEC) is given as 75.2% and the “reduction of TNFα-mediated ATP release” value (HUVEC; HUVEC) is given as 70.9%. The “effect on TNFα-induced THP-1 monocyte adhesion” value [1] was “significantly reduced” and the “effect on TNFα-induced YO-PRO-1 dye uptake” value (Panx1 channels in HUVEC) was “significantly attenuated”.
